Experimental data as given in PubChem BioAssay (NCI).
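Compound exposure: 48 hours, 5 concentrations, 96-well plates. TGI: concentration producing complete growth inhibition.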

These compounds were tested on NCI-H226 lung (assay: DTP human tumour cell line panel, 48 h).
In the case of `CCOC(=O)c1sc2c(sc(=O)n2-c2ccccc2)c1O`, the TGI is reported as > 100 µM. In the case of `C/C(=N/NC(=O)c1ccccc1O)c1ccc(/C(C)=N\NC(=O)c2ccccc2O)c2nc3cc(C)c(C)cc3nc12`, the TGI is reported as > 100 µM.

These compounds were tested on NCI-H23 lung (assay: DTP human tumour cell line panel, 48 h).
`COc1ccc(/C=C/c2cc(OC)cc(OC)c2)cc1` was tested, and the TGI was > 100 µM. For `CN(c1nc(=[N+](C)C)ss1)C1CCCCC1`, the TGI was > 100 µM. In the case of `CCOC(=O)c1sc2c(sc(=O)n2-c2ccccc2)c1O`, the TGI is reported as > 100 µM. In the case of `Cc1ccc(NC(=O)CC(=O)n2nc(-c3ccccc3)c(N=Nc3ccccc3[N+](=O)[O-])c2-c2ccccc2)cc1`, the TGI is reported as > 100 µM. In the case of `C/C(=N/NC(=O)c1ccccc1O)c1ccc(/C(C)=N\NC(=O)c2ccccc2O)c2nc3cc(C)c(C)cc3nc12`, the TGI is reported as > 100 µM.

Each compound was assayed on NCI-H460 lung (assay: DTP human tumour cell line panel, 48 h).
`COc1ccc(/C=C/c2cc(OC)cc(OC)c2)cc1` was tested, and the TGI was > 34.4 µM. `CN(c1nc(=[N+](C)C)ss1)C1CCCCC1` was tested, and the TGI was > 100 µM. `CCOC(=O)c1sc2c(sc(=O)n2-c2ccccc2)c1O` was tested, and the TGI was > 100 µM. For `Cc1ccc(NC(=O)CC(=O)n2nc(-c3ccccc3)c(N=Nc3ccccc3[N+](=O)[O-])c2-c2ccccc2)cc1`, the TGI was > 100 µM. In the case of `C/C(=N/NC(=O)c1ccccc1O)c1ccc(/C(C)=N\NC(=O)c2ccccc2O)c2nc3cc(C)c(C)cc3nc12`, the TGI is reported as > 100 µM.

What follows are compounds tested on NCI-H522 lung (assay: DTP human tumour cell line panel, 48 h).
`COc1ccc(/C=C/c2cc(OC)cc(OC)c2)cc1` was tested, and the TGI was 11.6 µM. In the case of `CN(c1nc(=[N+](C)C)ss1)C1CCCCC1`, the TGI is reported as > 100 µM. With `CCOC(=O)c1sc2c(sc(=O)n2-c2ccccc2)c1O` the TGI was > 100 µM. With `Cc1ccc(NC(=O)CC(=O)n2nc(-c3ccccc3)c(N=Nc3ccccc3[N+](=O)[O-])c2-c2ccccc2)cc1` the TGI was > 100 µM. For `C/C(=N/NC(=O)c1ccccc1O)c1ccc(/C(C)=N\NC(=O)c2ccccc2O)c2nc3cc(C)c(C)cc3nc12`, the TGI was > 100 µM.

What follows are compounds tested on OVCAR-3 ovarian (assay: DTP human tumour cell line panel, 48 h).
For `COc1ccc(/C=C/c2cc(OC)cc(OC)c2)cc1`, the TGI was 8.78 µM. `CCOC(=O)c1sc2c(sc(=O)n2-c2ccccc2)c1O` was tested, and the TGI was > 100 µM. In the case of `Cc1ccc(NC(=O)CC(=O)n2nc(-c3ccccc3)c(N=Nc3ccccc3[N+](=O)[O-])c2-c2ccccc2)cc1`, the TGI is reported as > 100 µM. In the case of `C/C(=N/NC(=O)c1ccccc1O)c1ccc(/C(C)=N\NC(=O)c2ccccc2O)c2nc3cc(C)c(C)cc3nc12`, the TGI is reported as > 100 µM.

These compounds were tested on OVCAR-4 ovarian (assay: DTP human tumour cell line panel, 48 h).
`COc1ccc(/C=C/c2cc(OC)cc(OC)c2)cc1` was tested, and the TGI was > 100 µM. In the case of `CN(c1nc(=[N+](C)C)ss1)C1CCCCC1`, the TGI is reported as > 100 µM. For `CCOC(=O)c1sc2c(sc(=O)n2-c2ccccc2)c1O`, the TGI was > 100 µM. For `Cc1ccc(NC(=O)CC(=O)n2nc(-c3ccccc3)c(N=Nc3ccccc3[N+](=O)[O-])c2-c2ccccc2)cc1`, the TGI was > 100 µM. `C/C(=N/NC(=O)c1ccccc1O)c1ccc(/C(C)=N\NC(=O)c2ccccc2O)c2nc3cc(C)c(C)cc3nc12` was tested, and the TGI was > 100 µM.

The compounds below were run on OVCAR-5 ovarian (assay: DTP human tumour cell line panel, 48 h).
With `COc1ccc(/C=C/c2cc(OC)cc(OC)c2)cc1` the TGI was > 50.1 µM. `CN(c1nc(=[N+](C)C)ss1)C1CCCCC1` was tested, and the TGI was > 100 µM. With `CCOC(=O)c1sc2c(sc(=O)n2-c2ccccc2)c1O` the TGI was > 100 µM. In the case of `Cc1ccc(NC(=O)CC(=O)n2nc(-c3ccccc3)c(N=Nc3ccccc3[N+](=O)[O-])c2-c2ccccc2)cc1`, the TGI is reported as > 100 µM. In the case of `C/C(=N/NC(=O)c1ccccc1O)c1ccc(/C(C)=N\NC(=O)c2ccccc2O)c2nc3cc(C)c(C)cc3nc12`, the TGI is reported as > 100 µM.

These compounds were tested on OVCAR-8 ovarian (assay: DTP human tumour cell line panel, 48 h).
`COc1ccc(/C=C/c2cc(OC)cc(OC)c2)cc1` was tested, and the TGI was > 100 µM. For `CN(c1nc(=[N+](C)C)ss1)C1CCCCC1`, the TGI was > 100 µM. `CCOC(=O)c1sc2c(sc(=O)n2-c2ccccc2)c1O` was tested, and the TGI was > 100 µM. `Cc1ccc(NC(=O)CC(=O)n2nc(-c3ccccc3)c(N=Nc3ccccc3[N+](=O)[O-])c2-c2ccccc2)cc1` was tested, and the TGI was > 100 µM. `C/C(=N/NC(=O)c1ccccc1O)c1ccc(/C(C)=N\NC(=O)c2ccccc2O)c2nc3cc(C)c(C)cc3nc12` was tested, and the TGI was > 100 µM.

These compounds were tested on RPMI-8226 leukemia (assay: DTP human tumour cell line panel, 48 h).
`COc1ccc(/C=C/c2cc(OC)cc(OC)c2)cc1` gave a TGI of 23.7 µM. For `CN(c1nc(=[N+](C)C)ss1)C1CCCCC1`, the TGI was > 100 µM. `Cc1ccc(NC(=O)CC(=O)n2nc(-c3ccccc3)c(N=Nc3ccccc3[N+](=O)[O-])c2-c2ccccc2)cc1` was tested, and the TGI was > 100 µM.

The compounds below were run on RXF 393 renal (assay: DTP human tumour cell line panel, 48 h).
Compound `COc1ccc(/C=C/c2cc(OC)cc(OC)c2)cc1` has a TGI of 10.7 µM. For `CN(c1nc(=[N+](C)C)ss1)C1CCCCC1`, the TGI was > 100 µM. For `CCOC(=O)c1sc2c(sc(=O)n2-c2ccccc2)c1O`, the TGI was > 100 µM. `Cc1ccc(NC(=O)CC(=O)n2nc(-c3ccccc3)c(N=Nc3ccccc3[N+](=O)[O-])c2-c2ccccc2)cc1` was tested, and the TGI was > 100 µM. With `C/C(=N/NC(=O)c1ccccc1O)c1ccc(/C(C)=N\NC(=O)c2ccccc2O)c2nc3cc(C)c(C)cc3nc12` the TGI was > 100 µM.

The compounds below were run on RXF-631 renal (assay: DTP human tumour cell line panel, 48 h).
For `COc1ccc(/C=C/c2cc(OC)cc(OC)c2)cc1`, the TGI was > 53.2 µM. In the case of `CN(c1nc(=[N+](C)C)ss1)C1CCCCC1`, the TGI is reported as > 100 µM. In the case of `CCOC(=O)c1sc2c(sc(=O)n2-c2ccccc2)c1O`, the TGI is reported as > 100 µM. In the case of `Cc1ccc(NC(=O)CC(=O)n2nc(-c3ccccc3)c(N=Nc3ccccc3[N+](=O)[O-])c2-c2ccccc2)cc1`, the TGI is reported as > 100 µM. `C/C(=N/NC(=O)c1ccccc1O)c1ccc(/C(C)=N\NC(=O)c2ccccc2O)c2nc3cc(C)c(C)cc3nc12` was tested, and the TGI was > 100 µM.

What follows are compounds tested on SF-268 CNS (assay: DTP human tumour cell line panel, 48 h).
For `COc1ccc(/C=C/c2cc(OC)cc(OC)c2)cc1`, the TGI was > 28.2 µM. With `CN(c1nc(=[N+](C)C)ss1)C1CCCCC1` the TGI was > 100 µM. For `CCOC(=O)c1sc2c(sc(=O)n2-c2ccccc2)c1O`, the TGI was > 100 µM. `Cc1ccc(NC(=O)CC(=O)n2nc(-c3ccccc3)c(N=Nc3ccccc3[N+](=O)[O-])c2-c2ccccc2)cc1` was tested, and the TGI was > 100 µM. `C/C(=N/NC(=O)c1ccccc1O)c1ccc(/C(C)=N\NC(=O)c2ccccc2O)c2nc3cc(C)c(C)cc3nc12` was tested, and the TGI was > 100 µM.

What follows are compounds tested on SF-295 CNS (assay: DTP human tumour cell line panel, 48 h).
With `COc1ccc(/C=C/c2cc(OC)cc(OC)c2)cc1` the TGI was > 31.3 µM. `CN(c1nc(=[N+](C)C)ss1)C1CCCCC1` was tested, and the TGI was > 100 µM. In the case of `CCOC(=O)c1sc2c(sc(=O)n2-c2ccccc2)c1O`, the TGI is reported as > 100 µM. For `Cc1ccc(NC(=O)CC(=O)n2nc(-c3ccccc3)c(N=Nc3ccccc3[N+](=O)[O-])c2-c2ccccc2)cc1`, the TGI was > 100 µM. In the case of `C/C(=N/NC(=O)c1ccccc1O)c1ccc(/C(C)=N\NC(=O)c2ccccc2O)c2nc3cc(C)c(C)cc3nc12`, the TGI is reported as > 100 µM.

What follows are compounds tested on SF-539 CNS (assay: DTP human tumour cell line panel, 48 h).
With `COc1ccc(/C=C/c2cc(OC)cc(OC)c2)cc1` the TGI was 11 µM. `CN(c1nc(=[N+](C)C)ss1)C1CCCCC1` was tested, and the TGI was > 100 µM. In the case of `CCOC(=O)c1sc2c(sc(=O)n2-c2ccccc2)c1O`, the TGI is reported as > 100 µM. In the case of `Cc1ccc(NC(=O)CC(=O)n2nc(-c3ccccc3)c(N=Nc3ccccc3[N+](=O)[O-])c2-c2ccccc2)cc1`, the TGI is reported as > 100 µM. With `C/C(=N/NC(=O)c1ccccc1O)c1ccc(/C(C)=N\NC(=O)c2ccccc2O)c2nc3cc(C)c(C)cc3nc12` the TGI was > 100 µM.

These compounds were tested on SK-MEL-2 melanoma (assay: DTP human tumour cell line panel, 48 h).
With `COc1ccc(/C=C/c2cc(OC)cc(OC)c2)cc1` the TGI was > 57 µM. In the case of `CN(c1nc(=[N+](C)C)ss1)C1CCCCC1`, the TGI is reported as > 100 µM. With `CCOC(=O)c1sc2c(sc(=O)n2-c2ccccc2)c1O` the TGI was > 100 µM. In the case of `Cc1ccc(NC(=O)CC(=O)n2nc(-c3ccccc3)c(N=Nc3ccccc3[N+](=O)[O-])c2-c2ccccc2)cc1`, the TGI is reported as > 100 µM. In the case of `C/C(=N/NC(=O)c1ccccc1O)c1ccc(/C(C)=N\NC(=O)c2ccccc2O)c2nc3cc(C)c(C)cc3nc12`, the TGI is reported as > 100 µM.

The compounds below were run on SK-MEL-28 melanoma (assay: DTP human tumour cell line panel, 48 h).
`COc1ccc(/C=C/c2cc(OC)cc(OC)c2)cc1` was tested, and the TGI was 65.7 µM. With `CN(c1nc(=[N+](C)C)ss1)C1CCCCC1` the TGI was > 100 µM.
